Measured values reported in patent US20230136562A1, “SPIROUREA DERIVATIVES” (Idorsia Pharmaceuticals Ltd, priority 2020, published 2023).

Columns and labels:
Kv7.2/7.3 = molecular target: T1, Kv7.2/7.3 (Homo sapiens, UniProt O43525+O43526); assay: Kv7.2/3 assay (FLIPR potassium assay, agonist mode); type: cell-based; conditions: Kv7.2/7.3 activation; HEK293 cells, human KCNQ2 and KCNQ3
T1 construct: expressed in transfected cells; host or cells: HEK293
Experimental: HEK293 cells were stably transfected with the appropriate ion channel cDNA(s) (human KCNQ2 and KCNQ3 genes). Cells were cultured in Dulbecco's Modified Eagle Medium/Nutrient mixture F-12 (D-MEM/F-12) supplemented with 10% fetal bovine serum, 100 U/mL penicillin G sodium, 100 µg/mL streptomycin sulfate and selection antibiotics. FLIPR Test Procedure: For FLIPR assay, cells were plated in 384-well black clear-bottomed microtiter plates (BD Biocoat Poly-D-Lysine Multiwell Cell Culture Plate) at 15'000 to 30'000 cells per well. Cells were incubated at 37° C. overnight or until cells reached sufficient density in the wells (near confluent monolayer) to use in fluorescence assays. […] Assays were performed with the FLIPR potassium assay kit (Molecular Devices) according to the manufacturer's instructions. Dye-loading: Growth media was removed and replaced with 20 μL of dye loading buffer for 60 min at room temperature. FLIPR Recording (agonist mode): Stock solutions of test compounds were prepared at a concentration of 33.3 mM in DMSO. 5 μL of 5× concentrated test, vehicle, or control compounds solutions prepared in the stimulation buffer (K^+-free buffer with 5 mM TI^+) were added to each well and fluorescence recording was continued for 5 min. The agonist effect (EC50 and % effect) of test or control compounds on Kv7 channels was determined as follows: Raw data was exported using Screenworks® 4.2 software and the fluorescence traces were analysed using Microsoft Excel (Microsoft Corp., Redmond, Wash.). The test compounds responses were expressed as % of maximum response of the control compound Flupirtine (Sigma-Aldrich), which was tested at concentrations ranging from 0.03 to 100 μM. Concentration-response data were fitted to a Hill equation. Non-linear least squares fits were made assuming a simple binding model. If appropriate, fits were weighted by the standard deviation. No assumptions about the fit parameters were made; the fit parameters were determined by the algorithm.

Wistar rats = assay: Amygdala-kindling rat model; type: in vivo; conditions: formulation 90% MC 0.5% + 10% PEG400
Experimental: Formulation and Administration.
Compounds were formulated in a 10% polyethylene glycol 400 (PEG 400)/90% aqueous solution of 0.5% methylcellulose (MC 0.5%). Firstly drugs are dissolved in PEG 400 and then suspended in MC 0.5% for oral gavage at X mg/5 mL/kg (X see table).
Amygdala-Kindling Rat Model:
1. Procedure: Adult male Wistar rats (Harlan Laboratories, Netherlands, or Charles Rivers, Germany; body weight 300-350 g) were stereotaxically implanted with twisted bipolar plastic-coated stainless steel electrode (MS333-2-BIU 10 mm, Plastics One) into the right basolateral amygdala under isoflurane anesthesia. To place the electrode, trepanations were made in the skull and the electrode was lowered into the right basolateral amygdala (from bregma: anteriorposterior (AP): −2.5 mm, medio-lateral (ML): −3.5 mm, dorso-ventral (DV): −8.6 mm; α=10°) and secured to the skull with screws and dental acrylate. After one week of recovery, they were handled daily and habituated over one week to the kindling set-up. Kindling procedure: For a kindling session each rat was placed individually into a smooth acrylic plastic, round-bottomed bowl (Ø 36 cm, height 36 cm, BASi movement-responsive caging system) and its intracranial implanted electrode was connected to the stimulator (STG4008, Multichannel Systems GmbH) and the recording devices (PowerLab 8/35, ADInstruments Ltd) via a cable (335-340/3 (C), Plastics One). For the kindling procedure, each rat was exposed once daily to an electrical stimulation and the behavioral symptoms of the evoked seizure were observed and classified according to the modified Racine scale (stage 0, arrest, wet dog shakes, normal behaviour; stage 1, facial twitches: nose, lips, eyes; stage 2, chewing, head nodding; stage 3, forelimb clonus; stage 4, rearing, falling on forelimbs; stage 5, rearing, falling on side or back, rolling). The electrical stimulus consists of a 1s-train of 50 Hz square-wave biphasic pulses of 1-ms duration at an intensity of 400 μA (suprathreshold intensity). […] Data Scoring and analysis. The duration of electroencephalographic seizures (afterdischarge, AD) was recorded using LabChart7 Pro software (ADlnstruments Ltd). Simultaneously, videos were recorded to evaluate seizure stage (SS).
2. Compound testing: Acute drug effects were evaluated in groups of 6-8 fully kindled rats in a randomized cross-over design with 48 h between drug and vehicle applications. Following oral administration of drug or vehicle, drug testing included determination of the afterdischarge threshold (the minimal stimulation intensity necessary to evoke an afterdischarge (electroencephalographically measured neuronal hyper-synchronous activity with an amplitude 2-times higher than baseline amplitude and a frequency of ≥1 Hz) of at least 3 sec duration) and monitoring electroencephalographic and behavioral correlates of the evoked seizure at ADT (afterdischarge threshold), including AD duration and SS, by a experimenter blind to treatment assignment.

[1] = 100 mg/kg po, time of challenge 1 h
[2] = 30 mg/kg po, time of challenge 1 h
[3] = 10 mg/kg po, time of challenge 15 min

EC50 (Kv7.2/7.3) [nM] | SMILES | AD duration [% vs veh] (Wistar rats; [1]) | Seizure stage [% vs veh] (Wistar rats; [1]) | AD duration [% vs veh] (Wistar rats; [2]) | Seizure stage [% vs veh] (Wistar rats; [2]) | AD duration [% vs veh] (Wistar rats; [3]) | Seizure stage [% vs veh] (Wistar rats; [3])
70 | O=C(NCc1cccc(C(F)(F)F)c1)NC1CC2(CC2)C1 [Example 2, 1-Spiro[2.3]hex-5-yl-3-(3-trifluoromethyl-benzyl)-urea] | −93 | −88 |  |  |  | 
12.4 | O=C(NCc1cc(OCC(F)(F)F)ncn1)NC1CC2(CCC2)C1 [Example 59, 1-Spiro[3.3]hept-2-yl-3-[6-(2,2,2-trifluoro-ethoxy)-pyrimidin-4-ylmethyl]-urea] |  |  | −96 | −83 |  | 
23 | O=C(NC1CC2(CC2)C1)N[C@@H](CO)c1cccc(C(F)(F)F)c1 (single isomer, unassigned) [Example 186] |  |  |  |  | −87 | −50
